Bounds are passed on as bounds.

In the experiment the test system is IL-2 production from Jurkat cells. In words: cells. As to conditions: Homo sapiens, read-out: IL-2 production inhibition IC50 value.

On to `Cn1nc(C(F)(F)F)cc1-c1ccc(C(=O)Nc2ccccc2Cl)s1` [Example 5, 2′-chloro-5-(1-methyl-3-trifluoromethyl-1H-pyrazol-5-yl)thiophene-2-carboxyanilide], for which the IC50 is ≤ 1 µM.

Consider `Cc1ncsc1C(=O)Nc1ccc(-n2nc(C(F)(F)F)cc2C(F)(F)F)cc1` [Example 1, 4-methyl-4′-[3,5-bis(trifluoromethyl)-1H-pyrazol-1-yl]thiazole-5-carboxyanilide], for which the IC50 is ≤ 1 µM.

Source of the values: patent US7285554B2, “Pyrazole derivative” (Astellas Pharma Inc., priority 1997, dated 2007).
